Test results from patent publication US20240209028A1, “CNP COMPOUNDS” (priority 2022, published 2024).
Where two headings read alike, the source gives them in different places. Blank lines part the entries; values can stand above or below the molecule they belong to. Starred links: 1 amine or outer side, 2 acyl side, 3 side chain; linkers in the order of their positions; H or OH if unused. Positions of bridges follow the written chain, without caps; N, C: chain ends. Residues, ends and D or L forms follow the SMILES beside them. *: point of attachment. C18 diacid = O=C(O)CCCCCCCCCCCCCCCCC(=O)*; γGlu = O=C(O)[C@H](CCC(=O)[*:2])N[*:1]; AEEA = NCCOCCOCC(=O)O

How the values were obtained:
[1] = PK after i.v. and s.c. administration to Göttingen minipig; conditions: female, in vivo, Göttingen Minipig; for clearance: read-out: CL (ml/hr/kg), Intravenous PK (converted); for bioavailability: s.c. bioavailability, read-out: F (%), Subcutaneous PK
How it was run: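 Female Göttingen minipigs (6-12 months, ~22 kg) and domestic LYD pigs (4-5 months, ~80 kg) given CNP compounds i.v. (30-60 or 15-43 nmol/kg) or s.c. neck (55-62 or 20-30 nmol/kg) via catheter/pen. EDTA plasma sampled up to 14 days, CNP and cGMP by LC-MS; non-compartmental PK, F from dose-normalized AUC s.c./i.v.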

neprilysin (NEP) = neprilysin (NEP) (Homo sapiens, UniProt P08473); test: In vitro neprilysin stability; conditions: recombinant human neprilysin (rhNEP), pH 7.4
[2] = PK after i.v. and s.c. administration to domestic LYD pig; conditions: female, domestic LYD pig, pig, in vivo, sc
Protocol: The purpose of this study was to investigate pharmacokinetic and pharmacodynamic properties after intravenous (i.v.) and subcutaneous (s.c.) administration to Gottingen Minipig and domestic LYD pig, and to estimate bioavailability after s.c. dosing. Quantitative plasma analysis of CNP and cGMP levels were performed as described in
Animals and dosing: The pharmacokinetic and pharmacodynamic studies in Gottingen Minipig or domestic LYD pig were conducted at CRO Minerva Imaging or Novo Nordisk A/S, respectively. CNP compounds were dosed to normal female 1) Gottingen minipigs 6-12 months of age with an average weight of 22 kg or 2) domestic LYD pigs 4-5 months of age with and average weight of 80 kg. At least one week prior to dosing, permanent central venous catheters were implanted for blood sampling and intravenous (i.v.) dosing. For subcutaneous (s.c.) dosing, the pigs were ultrasound scanned and the optimal injection area laterally on the neck marked by a permanent tattoo. An insulin pen (NovoPen Echo or NovoPen 4) and insulin needle (NovoFine 32G/4 mm or NovoTwist 32G/5 mm) were used for accurate deposition of the CNP formulations in the subcutaneous fat tissue with the needle perpendicular to the skin.
CNP compounds were formulated according to the principles in General Methods of Preparation—Method G and were either A) 8 mM sodium phosphate, 250 mM glycerol, pH 6.5, B) 5 mM sodium acetate, 250 mM glycerol, pH 4.0, C) 5 mM sodium acetate, 240 mM propylene glycol, pH=4.0, D) 8 mM sodium phosphate, 250 mM glycerol, pH 7.5 or E) 20 mM sodium phosphate, 223 mM propylene glycol, pH 6.0.
Intravenously, the CNP compounds were dosed at 30-60 nmol/kg to Minipig and 15-43 nmol/kg to domestic pig using formulations A-E. Subcutaneously, the CNP compounds were dosed at 55-62 nmol/kg to Minipig and 20-30 nmol/kg to domestic pig using formulations A-D.
Sampling: Blood samples of approximately 1 mL were collected pre dose and up to 14 days post dose into EDTA-coated tubes (8 mM) for cGMP and CNP compound analysis by LC-MS. In few instances, cGMP was only analysed up to 48 hours post dose after intravenous dosing in domestic LYD pig. The blood samples were kept on wet ice for maximum 30 minutes until centrifugation for 10 minutes at 4° C. and minimum 1500G, and the plasma samples were stored at −20° C. until analysis.
Plasma concentration-time profiles were analyzed by non-compartmental PK analysis using Phoenix WinNonlin 8.1, Pharsight Inc., Mountain View, CA, USA. Calculation of the area under the plasma concentration-time curve (AUC) was based on the “linear up log down” method, and uniform weighting was used for estimation of the terminal rate constant (λz). S.c. bioavailability (F) was calculated as the dose-normalized AUC (AUC/dose) after s.c. administration divided by the AUC/dose after i.v. administration. […]

[3] = Mouse growth study (tail and body length); format: in vivo, mice (C57BL/6J); conditions: for body length higher compared to control group: 35 days; for change in tail length (from day 0) increased compared to control animals: after 35 days; for Tail length, Mean (%) change from day 0 / Body length, Mean (%) change from day 0: C57BL/6J mice
Protocol: The purpose of this study was to evaluate growth in mice after treatment with two doses of CNP compound.
Procedure: Mice (C57BL/6J, male, age 4 weeks; n=10) received daily subcutaneous injections of compound 9482 or vehicle for 35 days. Formulations were prepared according to the principles described in General Methods of Preparation—Method G (30 and 70 nmol/kg, 10 mL/kg; Formulation buffer 8 mM sodium phosphate, 250 mM glycerol, 0.007% polysorbate 20, pH 7.4). Body weight and tail and body length were measured weekly throughout the study. The increase in growth was expressed as percentage change from day (mean (SD)).
In Table 28, increase in tail length is expressed as percentage change from day 0 (mean (SD)). Statistically significant differences are indicated compared to control group (two-way ANOVA).
In Table 29, increase in body length is expressed as percentage change from day 0 (mean (SD)). Statistically significant differences are indicated compared to control group (two-way ANOVA).

[4] = iv, i.v., read-out: T½, iv (converted)
[5] = sc, s.c., read-out: T½, sc (converted)
[6] = both 30 and 70 nmol/kg daily s.c., p<0.05

neprilysin (NEP), sequence (P08473 whole entry): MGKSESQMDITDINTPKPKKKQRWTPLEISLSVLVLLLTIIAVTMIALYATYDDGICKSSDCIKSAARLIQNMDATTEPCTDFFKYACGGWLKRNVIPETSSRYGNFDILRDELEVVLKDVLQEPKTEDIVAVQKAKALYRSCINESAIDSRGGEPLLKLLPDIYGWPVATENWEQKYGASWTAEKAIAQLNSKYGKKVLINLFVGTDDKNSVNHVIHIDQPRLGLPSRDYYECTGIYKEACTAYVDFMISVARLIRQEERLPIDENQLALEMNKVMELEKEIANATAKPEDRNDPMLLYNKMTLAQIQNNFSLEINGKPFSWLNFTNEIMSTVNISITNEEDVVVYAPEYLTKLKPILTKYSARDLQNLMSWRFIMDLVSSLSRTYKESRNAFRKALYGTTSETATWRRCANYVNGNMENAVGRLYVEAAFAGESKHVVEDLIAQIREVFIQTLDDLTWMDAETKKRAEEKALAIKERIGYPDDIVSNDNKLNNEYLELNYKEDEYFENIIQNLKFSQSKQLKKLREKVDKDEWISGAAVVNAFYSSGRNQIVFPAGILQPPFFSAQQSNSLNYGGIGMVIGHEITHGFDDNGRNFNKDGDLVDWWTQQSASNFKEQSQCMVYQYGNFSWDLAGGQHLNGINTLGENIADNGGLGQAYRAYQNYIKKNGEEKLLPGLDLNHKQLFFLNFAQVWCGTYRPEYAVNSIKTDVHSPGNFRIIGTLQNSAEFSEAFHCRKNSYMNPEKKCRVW

Compound: CC[C@H](C)[C@@H]1NC(=O)[C@H](CCCNC(=N)N)NC(=O)[C@H](CC(=O)O)NC(=O)[C@H](CC(C)C)NC(=O)[C@@H]2CCCN2C(=O)[C@H](CC(C)C)NC(=O)CNC(=O)[C@H](Cc2ccccc2)NC(=O)[C@@H](NC(=O)CNC(=O)[C@H](CCC(N)=O)NC(=O)[C@H](CO)NC(=O)[C@H](CC(C)C)NC(=O)CNC(=O)[C@H](CCCCN)NC(=O)[C@H](CCCCN)NC(=O)[C@H](CCC(N)=O)NC(=O)[C@H](C)NC(=O)CNC(=O)[C@H](CCCCN)NC(=O)[C@H](Cc2ccc(O)cc2)NC(=O)[C@H](CCCCN)NC(=O)[C@H](CCCNC(=N)N)NC(=O)[C@H](C)NC(=O)COCCOCCNC(=O)COCCOCCNC(=O)COCCOCCNC(=O)COCCOCCNC(=O)CC[C@H](NC(=O)CC[C@H](NC(=O)CC[C@H](NC(=O)CC[C@H](NC(=O)CC[C@H](NC(=O)CCCCCCCCCCCCCCCCC(=O)O)C(=O)O)C(=O)O)C(=O)O)C(=O)O)C(=O)O)CSSC[C@@H](C(=O)O)NC(=O)CNC(=O)[C@H](CC(C)C)NC(=O)CNC(=O)[C@H](CO)NC(=O)[C@H](CC(C)C)NC(=O)[C@H](CO)NC(=O)CNC1=O [Compound 9407] ({C18 diacid-γGlu-γGlu-γGlu-γGlu-γGlu-AEEA-AEEA-AEEA-AEEA}-ARKYKGAQKKGLSQGCFGLPLDRIGSLSGLGC-OH; disulfide 16-32)
- clearance ([1]; iv, i.v.): 1.2 mL/h/kg
- half-life [1, 4]: 82 h
- bioavailability ([1]; sc): 86%
- half-life [1, 5]: 92 h
- remaining at 1.5 h, 1000 nM (neprilysin (NEP)): 96.6%

Compound: CC[C@H](C)[C@@H]1NC(=O)[C@H](CCCNC(=N)N)NC(=O)[C@H](CC(=O)O)NC(=O)[C@H](CC(C)C)NC(=O)[C@@H]2CCCN2C(=O)[C@H](CC(C)C)NC(=O)CNC(=O)[C@H](Cc2ccccc2)NC(=O)[C@@H](NC(=O)CNC(=O)[C@H](CCC(N)=O)NC(=O)[C@H](CO)NC(=O)CNC(=O)CNC(=O)[C@H](CCCCN)NC(=O)[C@H](CCCCN)NC(=O)[C@H](CCC(N)=O)NC(=O)[C@H](C)NC(=O)CNC(=O)[C@H](CCCCN)NC(=O)[C@H](Cc2ccc(O)cc2)NC(=O)COCCOCCNC(=O)COCCOCCNC(=O)COCCOCCNC(=O)COCCOCCNC(=O)CC[C@H](NC(=O)CC[C@H](NC(=O)CCCCCCCCCCCCCCCCC(=O)O)C(=O)O)C(=O)O)CSSC[C@@H](C(=O)O)NC(=O)CNC(=O)[C@H](CC(C)C)NC(=O)CNC(=O)[C@H](CO)NC(=O)[C@H](CC(C)C)NC(=O)[C@H](CO)NC(=O)CNC1=O [Compound 9435] ({C18 diacid-γGlu-γGlu-AEEA-AEEA-AEEA-AEEA}-YKGAQKKGGSQGCFGLPLDRIGSLSGLGC-OH; disulfide 13-29)
- clearance ([1]; iv, i.v.): 1.02 mL/h/kg
- half-life [1, 4]: 77 h
- bioavailability ([1]; sc): 77%
- half-life [1, 5]: 82 h
- remaining at 1.5 h, 1000 nM (neprilysin (NEP)): 93.2%

- bioavailability [2]: 25%
Compound: CC[C@H](C)[C@@H]1NC(=O)[C@H](CCCNC(=N)N)NC(=O)[C@H](CC(=O)O)NC(=O)[C@H](CC(C)C)NC(=O)[C@H](CCCCN)NC(=O)[C@H](CC(C)C)NC(=O)CNC(=O)[C@H](Cc2ccccc2)NC(=O)[C@@H](NC(=O)CNC(=O)[C@H](CCCCN)NC(=O)[C@H](CO)NC(=O)[C@H](CC(C)C)NC(=O)CNC(=O)[C@H](CCCCN)NC(=O)[C@H](CCCCN)NC(=O)[C@H](CCC(N)=O)NC(=O)[C@H](C)NC(=O)CNC(=O)[C@H](Cc2c[nH]cn2)NC(=O)[C@H](CCC(=O)O)NC(=O)COCCOCCNC(=O)COCCOCCNC(=O)CC[C@H](NC(=O)CCCCCCCCCCCCCCCCC(=O)O)C(=O)O)CSSC[C@@H](C(=O)O)NC(=O)CNC(=O)[C@H](CC(C)C)NC(=O)CNC(=O)[C@H](CO)NC(=O)[C@H](CC(C)C)NC(=O)[C@H](CO)NC(=O)CNC1=O [compound 1235]

Compound: CC[C@H](C)[C@@H]1NC(=O)[C@H](CCCNC(=N)N)NC(=O)[C@H](CC(=O)O)NC(=O)[C@H](CC(C)C)NC(=O)[C@@H]2CCCN2C(=O)[C@H](CC(C)C)NC(=O)CNC(=O)[C@H](Cc2ccccc2)NC(=O)[C@@H](NC(=O)CNC(=O)[C@H](CO)NC(=O)[C@H](CO)NC(=O)[C@H](CC(C)C)NC(=O)CNC(=O)[C@H](CCCCN)NC(=O)[C@H](CCCCN)NC(=O)[C@H](CCC(N)=O)NC(=O)[C@H](C)NC(=O)CNC(=O)[C@H](CCCCN)NC(=O)[C@H](Cc2ccc(O)cc2)NC(=O)[C@H](CCCCN)NC(=O)[C@H](CCCNC(=N)N)NC(=O)[C@H](C)NC(=O)[C@H](CCC(N)=O)NC(=O)[C@@H]2CCCN2C(=O)[C@H](Cc2c[nH]cn2)NC(=O)[C@H](CCC(=O)O)NC(=O)[C@H](CCC(N)=O)NC(=O)CC[C@H](NC(=O)CC[C@H](NC(=O)CC[C@H](NC(=O)CC[C@H](NC(=O)CC[C@H](NC(=O)CCCCCCCCCCCCCCCCC(=O)O)C(=O)O)C(=O)O)C(=O)O)C(=O)O)C(=O)O)CSSC[C@@H](C(=O)O)NC(=O)CNC(=O)[C@H](CC(C)C)NC(=O)CNC(=O)[C@H](CO)NC(=O)[C@H](CC(C)C)NC(=O)[C@H](CO)NC(=O)CNC1=O [compound 9482] ({C18 diacid-γGlu-γGlu-γGlu-γGlu-γGlu}-QEHPQARKYKGAQKKGLSSGCFGLPLDRIGSLSGLGC-OH; disulfide 21-37)
- body length higher compared to control group ([3]; 30 nmol/kg daily s.c.): 30%
- change in tail length (from day 0) increased compared to control animals ([3]; 30 nmol/kg daily s.c.): 45%
- Tail length, Mean (%) change from day 0 ([3]; 30 nmol/kg daily s.c., day 7): 11.8%
- Body length, Mean (%) change from day 0 ([3]; 30 nmol/kg daily s.c., day 8): 10.2%
- Tail length, Mean (%) change from day 0 ([3]; 30 nmol/kg daily s.c., day 14): 16.0%
- Body length, Mean (%) change from day 0 ([3]; 30 nmol/kg daily s.c., day 18): 17.5%
- Tail length, Mean (%) change from day 0 ([3]; 30 nmol/kg daily s.c., day 21): 24.1%
- Body length, Mean (%) change from day 0 ([3]; 30 nmol/kg daily s.c., day 25): 22.5%
- Tail length, Mean (%) change from day 0 ([3]; 30 nmol/kg daily s.c., day 28): 25.6%
- Body length, Mean (%) change from day 0 ([3]; 30 nmol/kg daily s.c., day 35): 27.4%
- Tail length, Mean (%) change from day 0 ([3]; 30 nmol/kg daily s.c., day 35): 28.5%
- body length higher compared to control group ([3]; 70 nmol/kg daily s.c.): 67%
- change in tail length (from day 0) increased compared to control animals ([3]; 70 nmol/kg daily s.c.): 83%
- Tail length, Mean (%) change from day 0 ([3]; 70 nmol/kg daily s.c., day 7): 14.3%
- Body length, Mean (%) change from day 0 ([3]; 70 nmol/kg daily s.c., day 8): 12.8%
- Tail length, Mean (%) change from day 0 ([3]; 70 nmol/kg daily s.c., day 14): 20.3%
- Body length, Mean (%) change from day 0 ([3]; 70 nmol/kg daily s.c., day 18): 21.5%
- Tail length, Mean (%) change from day 0 ([3]; 70 nmol/kg daily s.c., day 21): 29.0%
- Body length, Mean (%) change from day 0 ([3]; 70 nmol/kg daily s.c., day 25): 29.0%
- Tail length, Mean (%) change from day 0 ([3]; 70 nmol/kg daily s.c., day 28): 32.0%
- Body length, Mean (%) change from day 0 ([3]; 70 nmol/kg daily s.c., day 35): 35.3%
- Tail length, Mean (%) change from day 0 ([3]; 70 nmol/kg daily s.c., day 35): 35.7%
- time after which body length was significantly increased compared to control [3, 6]: 18 days
- time after which tail length was significantly increased compared to control [3, 6]: 7 days
